Values belong to the compound of their own block, whether it stands above or below them.
How the values were obtained:
LRS / RagD binding = target: T1, LRS / RagD binding (Homo sapiens, UniProt Q9NQL2+Q9P2J5); assay: In vitro pull-down of RagD with GST-LRS
T1 construct: made in house; RagD: 293T cell lysate
Protocol: In FIG. 6c, purified GST or GST-LRS protein was incubated with HA-RagD transfected cell lysates in the presence of GDPβS or GTPγS. The co-precipitated RagD was determined by immunoblotting with anti-HA antibody.
In FIG. 10a, the effect of tRNA on in vitro LRS-RagD binding. 293T cell lysates were incubated with purified GST or GST-fused LRS in the presence of the combinations of leucine (0.1 mM), ATP (0.1 mM), and tRNA^Leu (25 μg). The precipitated RagD was determined by immunoblotting with anti-RagD antibody.
Recombinant LRS or RagD fragment proteins were expressed as GST fusion proteins and purified by glutathione sepharose. The interactions between RagD fragments and myc-LRS overexpressed cell lysates or between LRS fragments and HA-RagD overexpressed cell lysates were tested using in vitro binding assays. Binding assay was conducted in 25 mM Tris-HCl buffer (pH7.4) containing 10 mM NaCl, 1 mM MgCl2, 1 mM EDTA, 0.5 mM EGTA, and 0.5% Triton X-100.

mTORC1 [1] = assay: S6K phosphorylation (mTORC1 activation) by immunoblotting in 293T cells; type: cell-based; details: for EC50: Homo sapiens, HEK-293T; for EC50 / leucine-induced S6K phosphorylation / amino acid-induced S6K phosphorylation: 293T cells; for S6K phosphorylation by the leucine analogue itself: 293T cells starved 1 hour of leucine, 0.8 or 8 mM analogue; for leucine-induced S6K phosphorylation: preincubated with 0.8 or 8 mM analogue, then 0.8 mM leucine 5 min; for amino acid-induced S6K phosphorylation: siRNA 48 hours
Protocol: FIGS. 9a-9d show the effect of LRS knockdown on leucine- or leucine analogues-stimulated S6K phosphorylation. In FIG. 9a, the effect of leucine analogues on leucine-stimulated S6K phosphorylation is shown. 293T cells were starved for 1 hour of leucine and preincubated with either 0.8 or 8 mM leucinol or leucine amide. After 5 min, 0.8 mM leucine was added. After 5 min incubation, cells were harvested and S6K phosphorylation was determined by immunoblotting.
In FIG. 11a, 293T cells were treated with leucine at the indicated concentration for 5 min. Leucine-dependent S6K phosphorylation was determined by immunoblotting. In FIG. 11b, quantitation of p-S6K band in FIG. 11a is shown. EC50 of leucine stimulation of mTORC1 was about […]. In FIG. 11c, kinetic parameters for leucylation and ATP-PPi exchange activity of WT LRS is shown.
(§1) For leucine depletion, cells were rinsed with leucine-free DMEM twice, incubated in leucine-free DMEM for 60 minutes, and stimulated with […] leucine for 5-60 minutes. For amino acid starvation, cells were rinsed with and incubated in DPBS containing 25 mM glucose, 1 mM sodium pyruvate, lx MEM vitamins for 60 minutes, and replaced with and incubated in DMEM for 5-60 minutes.
(§2) Cells were dissolved in the lysis buffer containing 1% Triton X-100, 40 mM HEPES (pH7.4), 2 mM EDTA, 10 mM pyrophosphate, 10 mM glycerophosphate, and protease inhibitor cocktail. The lysates were centrifuged at 13,000 rpm for 30 minutes. We then fractionated 20 μg of the extracted proteins by SDS-PAGE. For immunoprecipitations, the cells were lysed (50 mM Tris-HCL (pH 7.4), 10 mM NaCl, 1 mM EDTA, 0.5 mM EGTA, 1 mM MgCl2, 0.1% CHAPS, and 0.5% Triton X-100, 1 mM phenylmethylsulfonyl fluoride) and the primary antibodies were added to the lysates and incubated with rotation for 2 hr at 4° C. A 50% slurry of protein agarose G-sepharose was then added and the incubation continued for an additional 4 hr. After washing three times with the ice-cold lysis buffer, the precipitates were dissolved in the SDS sample buffer and separated by SDS-PAGE.

mTORC1 [2] = assay: S6K phosphorylation (mTORC1 activation) by immunoblotting in HeLa cells; type: cell-based; details: for S6K phosphorylation by the leucine analogue itself: HeLa cells starved 1 hour of leucine, 0.8 or 8 mM analogue; for leucine-induced S6K phosphorylation: HeLa cells, preincubated with 0.8 or 8 mM analogue, then 0.8 mM leucine 5 min
Protocol: In FIG. 9b, HeLa cells were starved for 1 hour of leucine and preincubated with either 0.8 or 8 mM leucinol or leucine amide. After 5 min, 0.8 mM leucine was added. After 5 min incubation, cells were harvested and S6K phosphorylation was determined by immunoblotting.
as §1, §2

293T cells = assay: Cell size determination (FSC of G1 cells, FACS); type: cell-based
Protocol: For measurement of cell size using forward scatter units (FSC) with unfixed cells. 293T cells were plated, washed once with PBS, and resuspended in PBS containing 0.1% serum, 5 mM EDTA, 5 ng/ml propidium iodide (PI; Sigma). Samples were analyzed by FACS analysis (FACS caliber; Becton Dickinson) for cell size (FSC). The mean of FSC of G1 phase cells was determined.

EGFP-LC3 puncta = assay: Autophagy: EGFP-LC3 puncta in siRNA-transfected cells; type: cell-based; details: starved for leucine and serum for 2 hours
Protocol: The cells were starved for leucine and serum for 2 hours. Accumulation of EGFP-LC3 in puncta, was monitored.

T1 sequence (Q9P2J5 whole entry): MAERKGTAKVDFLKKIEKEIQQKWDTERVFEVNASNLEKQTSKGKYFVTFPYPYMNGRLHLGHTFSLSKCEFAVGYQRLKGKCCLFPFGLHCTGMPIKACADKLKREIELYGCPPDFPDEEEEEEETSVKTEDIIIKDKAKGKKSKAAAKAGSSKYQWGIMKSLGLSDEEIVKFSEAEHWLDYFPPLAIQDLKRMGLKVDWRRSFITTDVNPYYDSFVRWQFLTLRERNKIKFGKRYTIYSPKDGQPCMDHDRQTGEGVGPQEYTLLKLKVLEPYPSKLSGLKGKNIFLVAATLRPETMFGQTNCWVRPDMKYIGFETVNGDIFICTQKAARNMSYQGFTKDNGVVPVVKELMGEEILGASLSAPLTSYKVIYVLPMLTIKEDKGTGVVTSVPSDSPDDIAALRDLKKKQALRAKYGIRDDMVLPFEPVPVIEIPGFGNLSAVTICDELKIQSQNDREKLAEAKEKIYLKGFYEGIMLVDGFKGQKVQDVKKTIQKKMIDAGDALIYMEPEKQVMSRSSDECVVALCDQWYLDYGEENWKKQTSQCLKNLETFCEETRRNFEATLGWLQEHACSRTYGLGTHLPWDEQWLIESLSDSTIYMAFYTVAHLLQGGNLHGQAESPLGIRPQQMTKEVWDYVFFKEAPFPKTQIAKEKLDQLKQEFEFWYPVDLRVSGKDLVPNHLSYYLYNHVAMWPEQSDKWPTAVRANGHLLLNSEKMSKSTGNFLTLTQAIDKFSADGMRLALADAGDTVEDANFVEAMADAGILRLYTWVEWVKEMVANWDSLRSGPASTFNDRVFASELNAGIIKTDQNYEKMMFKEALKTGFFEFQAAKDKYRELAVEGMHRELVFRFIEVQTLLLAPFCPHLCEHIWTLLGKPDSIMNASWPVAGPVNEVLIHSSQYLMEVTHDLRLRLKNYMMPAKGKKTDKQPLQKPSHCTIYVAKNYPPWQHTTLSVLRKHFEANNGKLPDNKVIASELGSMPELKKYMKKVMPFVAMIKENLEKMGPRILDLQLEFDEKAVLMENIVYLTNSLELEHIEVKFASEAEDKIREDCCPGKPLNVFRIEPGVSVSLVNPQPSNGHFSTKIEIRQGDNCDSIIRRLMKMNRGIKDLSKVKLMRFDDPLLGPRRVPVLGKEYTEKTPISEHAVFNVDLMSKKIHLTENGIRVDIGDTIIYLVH
T1 sequence (Q9NQL2 whole entry): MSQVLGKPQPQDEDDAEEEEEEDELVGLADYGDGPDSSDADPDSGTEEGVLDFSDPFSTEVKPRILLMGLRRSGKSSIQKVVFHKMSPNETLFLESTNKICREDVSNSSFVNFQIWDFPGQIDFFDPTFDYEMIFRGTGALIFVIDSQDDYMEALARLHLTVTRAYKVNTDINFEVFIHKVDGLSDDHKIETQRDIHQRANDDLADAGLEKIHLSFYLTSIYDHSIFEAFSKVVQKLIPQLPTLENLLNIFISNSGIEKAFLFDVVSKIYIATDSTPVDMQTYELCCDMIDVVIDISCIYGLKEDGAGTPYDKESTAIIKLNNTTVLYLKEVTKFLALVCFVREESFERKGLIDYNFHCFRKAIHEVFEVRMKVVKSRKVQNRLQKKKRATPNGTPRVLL

competition with RagD for LRS binding (LRS / RagD binding; GST-LRS with 293T cell lysates, ATP 0.1 mM, tRNA^Leu 25 μg): not
Compound: Nc1ncnc2c1ncn2[C@@H]1O[C@H](COP(=O)(O)OP(=O)(O)OP(=O)(O)O)[C@@H](O)[C@H]1O [ATP]

Compound: Nc1nc2c(ncn2[C@@H]2O[C@H](COP(=O)(O)OP(O)(O)=S)[C@@H](O)[C@H]2O)c(=O)[nH]1 [GDPβS]
binding affinity of LRS to RagD (LRS / RagD binding; GST-LRS with HA-RagD transfected 293T cell lysates, presence of nucleotide analogue): significantly reduced

EC50 (mTORC1 [1]; 5 min, leucine 5 min, quantitation of p-S6K band (FIG. 11b legend), read-out: EC50 of leucine stimulation of mTORC1): ~80 µM
EC50 (mTORC1 [1]; read-out: EC50 for leucine stimulation of mTORC1): ~80 µM
EC50 (mTORC1 [2]; Homo sapiens, HeLa cells (data not shown), read-out: EC50 for leucine stimulation of mTORC1): ~80 µM
Compound: CC(C)C[C@H](N)C(=O)O [Leucine, L-Leucine]

Compound: CC(C)C[C@H](N)C(N)=O [leucinamide, L-Leucinamide]
S6K phosphorylation by the leucine analogue itself (mTORC1 [1]): significantly induced
leucine-induced S6K phosphorylation (mTORC1 [1]): further increased
S6K phosphorylation by the leucine analogue itself (mTORC1 [2]): significantly induced
leucine-induced S6K phosphorylation (mTORC1 [2]): further increased

Compound: CC(C)C[C@H](N)CO [leucinol, Leucinol]
S6K phosphorylation by the leucine analogue itself (mTORC1 [1]): no effect
leucine-induced S6K phosphorylation (mTORC1 [1]): inhibited leucine-induced S6K phosphorylation in dose-dependent manner
S6K phosphorylation by the leucine analogue itself (mTORC1 [2]): no effect
leucine-induced S6K phosphorylation (mTORC1 [2]): inhibited leucine-induced S6K phosphorylation in dose-dependent manner

Compound: MRS siRNA: siRNA CUACCGCUGGUUUAACAUUUCGUUU, SEQ ID NO 18 (chemistry not given here)
amino acid-induced S6K phosphorylation (mTORC1 [1]): not
cell size (293T cells): no effect

Compound: VRS siRNA: siRNA AGAAGAGGAUGUCAUGACCGGUCUC, SEQ ID NO 17 (chemistry not given here)
amino acid-induced S6K phosphorylation (mTORC1 [1]): not
cell size (293T cells): no effect

Compound: mTOR siRNA: siRNA GGAAGUACCCUACUUUGCUUGAGGU, SEQ ID NO 15 (chemistry not given here)
amino acid-induced S6K phosphorylation (mTORC1 [1]): significantly inhibited
LC3 puncta per cell compared to control siRNA (EGFP-LC3 puncta): statistically significant increase
